Read-outs that look alike come from different tables or passages of the source.
Target: T1, SIRT1 (Homo sapiens, UniProt Q96EB6)
T1 sequence (Q96EB6 1-747): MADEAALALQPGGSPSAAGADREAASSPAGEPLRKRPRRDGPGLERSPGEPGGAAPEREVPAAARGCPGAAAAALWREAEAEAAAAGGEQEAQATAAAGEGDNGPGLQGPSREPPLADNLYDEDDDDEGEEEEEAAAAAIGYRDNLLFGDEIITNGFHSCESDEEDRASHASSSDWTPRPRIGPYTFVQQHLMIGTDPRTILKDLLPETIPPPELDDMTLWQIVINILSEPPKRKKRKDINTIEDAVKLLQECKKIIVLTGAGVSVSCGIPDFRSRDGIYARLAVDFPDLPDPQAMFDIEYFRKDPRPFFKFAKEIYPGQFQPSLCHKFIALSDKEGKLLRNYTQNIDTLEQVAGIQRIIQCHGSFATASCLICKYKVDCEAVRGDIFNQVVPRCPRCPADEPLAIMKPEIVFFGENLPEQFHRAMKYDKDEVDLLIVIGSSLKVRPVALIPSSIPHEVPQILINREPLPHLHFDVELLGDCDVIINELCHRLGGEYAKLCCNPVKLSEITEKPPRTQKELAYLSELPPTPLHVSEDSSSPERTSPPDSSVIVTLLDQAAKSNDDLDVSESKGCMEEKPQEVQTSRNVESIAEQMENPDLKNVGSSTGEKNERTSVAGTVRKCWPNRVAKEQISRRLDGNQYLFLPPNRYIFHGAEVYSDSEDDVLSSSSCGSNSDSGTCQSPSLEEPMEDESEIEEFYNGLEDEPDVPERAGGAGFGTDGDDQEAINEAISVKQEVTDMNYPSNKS
Experiment: Trp mass spectrometry assay of SIRT1 activation (Ac-R-H-K-K(Ac)-W-NH2 peptide)
Assay type: biochemical
Details: for Emax: 25 min, read-out: TRP MAX RESP (percent maximum fold activation)
Method in brief: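 Mass spectrometry read-out (OAADPR formed, or deacetylated Trp peptide) after a 25 min NAD-dependent deacetylation by E. coli-expressed His-SIRT1, stopped with formic acid.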

[1] = Trp peptide 0.5 μM, 120 μM βNAD+, 10 nM SIRT1, 25 min at 25° C., relative to control (100%)
[2] = Trp peptide 0.5 μM, 120 μM βNAD+, 10 nM SIRT1, 25 min at 25° C.

Compound	Emax [1] [%]	TRP Activity (EC1.5, concentration of test compound that results in 150% activation of SIRT1) [2]	Emax [%]
C[C@@H](NC(=O)c1ccc2c(n1)N(C(=O)Nc1ccnn(C)c1=O)[C@H]1CCN2C1)C(F)(F)F [Example 122, (4S)—N5-(2-methyl-3-oxo-2,3-dihydropyridazin-4-yl)-N7-((R)-1,1,1-trifluoropropan-2-yl)-3,4-dihydro-1,4-methanopyrido[2,3-b][1,4]diazepine-5,7(2H)-dicarboxamide]	> 150	A (EC1.5<1 μM)	–
O=C(NC[C@H](O)C(F)(F)F)c1ccc2c(n1)N(C(=O)Nc1ccccn1)[C@H]1CCN2C1 [Example 52, (4S)—N5-(pyridin-2-yl)-N7-((S)-3,3,3-trifluoro-2-hydroxypropyl)-3,4-dihydro-1,4-methanopyrido[2,3-b][1,4]diazepine-5,7(2H)-dicarboxamide]	> 150	A (EC1.5<1 μM)	–
CC(C)NC(=O)c1ccc2c(n1)N(C(=O)Nc1ccccn1)[C@H]1CCN2C1 [Example 32, (4S)—N7-isopropyl-N5-(pyridin-2-yl)-3,4-dihydro-1,4-methanopyrido[2,3-b][1,4]diazepine-5,7(2H)-dicarboxamide]	–	A (EC1.5<1 μM)	> 150
O=C(NCC(F)F)c1ccc2c(n1)N(C(=O)Nc1ccccn1)[C@H]1CCN2C1 [Example 116, (4S)—N7-(2,2-difluoroethyl)-N5-(pyridin-2-yl)-3,4-dihydro-1,4-methanopyrido[2,3-b][1,4]diazepine-5,7(2H)-dicarboxamide]	–	A (EC1.5<1 μM)	> 150
O=C(N[C@H](CO)C(F)(F)F)c1ccc2c(n1)N(C(=O)Nc1ccc(F)cn1)[C@H]1CCN2C1 [Example 82, (4S)—N5-(5-fluoropyridin-2-yl)-N7-((R)-1,1,1-trifluoro-3-hydroxypropan-2-yl)-3,4-dihydro-1,4-methanopyrido[2,3-b][1,4]diazepine-5,7(2H)-dicarboxamide]	> 150	A (EC1.5<1 μM)	–
O=C(NCC(F)(F)F)c1ccc2c(n1)N(C(=O)Nc1cnc(OC[C@H](O)CO)cn1)[C@H]1CCN2C1 [Example 95, (4S)—N5-(5-((R)-2,3-dihydroxypropoxy)pyrazin-2-yl)-N7-(2,2,2-trifluoroethyl)-3,4-dihydro-1,4-methanopyrido[2,3-b][1,4]diazepine-5,7(2H)-dicarboxamide]	> 150	A (EC1.5<1 μM)	–
O=C(NC1CC1(F)F)c1ccc2c(n1)N(C(=O)Nc1ccccn1)[C@H]1CCN2C1 (single isomer, unassigned) [Example 44]	–	A (EC1.5<1 μM)	–
O=C(NCc1ccccc1)c1ccc2c(n1)N(C(=O)Nc1ccccn1)[C@H]1CCN2C1 [Example 106, (4S)—N7-benzyl-N5-(pyridin-2-yl)-3,4-dihydro-1,4-methanopyrido[2,3-b][1,4]diazepine-5,7(2H)-dicarboxamide]	> 150	A (EC1.5<1 μM)	–
C[C@@H](NC(=O)c1ccc2c(n1)N(C(=O)Nc1ncc3cc[nH]c3n1)[C@H]1CCN2C1)C(F)(F)F [Example 62, (4S)—N5-(7H-pyrrolo[2,3-d]pyrimidin-2-yl)-N7-((R)-1,1,1-trifluoropropan-2-yl)-3,4-dihydro-1,4-methanopyrido[2,3-b][1,4]diazepine-5,7(2H)-dicarboxamide]	> 150	A (EC1.5<1 μM)	–
CC(C)CNC(=O)c1ccc2c(n1)N(C(=O)Nc1ccccn1)[C@H]1CCN2C1 [Example 37, (4S)—N7-isobutyl-N5-(pyridin-2-yl)-3,4-dihydro-1,4-methanopyrido[2,3-b][1,4]diazepine-5,7(2H)-dicarboxamide]	> 150	A (EC1.5<1 μM)	–

Continued, in another order:

Emax [1] [%]	TRP Activity (EC1.5, concentration of test compound that results in 150% activation of SIRT1) [2]	Compound	Emax [%]
> 150	A (EC1.5<1 μM)	C[C@@H](NC(=O)c1ccc2c(n1)N(C(=O)Nc1cccc(OC[C@H](O)CO)n1)[C@H]1CCN2C1)C(F)(F)F [Example 141, (4S)—N5-(6-((R)-2,3-dihydroxypropoxy)pyridin-2-yl)-N7-((R)-1,1,1-trifluoropropan-2-yl)-3,4-dihydro-1,4-methanopyrido[2,3-b][1,4]diazepine-5,7(2H)-dicarboxamide]	–
> 150	B (EC1.5 1-25 μM)	CC(C)(CCO)NC(=O)c1ccc2c(n1)N(C(=O)Nc1ccccn1)[C@H]1CCN2C1 [Example 209, (4S)—N7-(4-hydroxy-2-methylbutan-2-yl)-N5-(pyridin-2-yl)-3,4-dihydro-1,4-methanopyrido[2,3-b][1, 4] diazepine-5, 7(2H)-dicarboxamide]	–
> 150	A (EC1.5<1 μM)	C[C@@H](NC(=O)c1ccc2c(n1)N(C(=O)Nc1cc(C(=O)NN)ccn1)[C@H]1CCN2C1)C(F)(F)F [Example 152, (4S)—N5-(4-(hydrazinecarbonyl)pyridin-2-yl)-N7-((R)-1,1,1-trifluoropropan-2-yl)-3,4-dihydro-1,4-methanopyrido[2,3-b][1,4]diazepine-5,7(2H)-dicarboxamide]	–
> 150	A (EC1.5<1 μM)	O=C(NC1CC1(F)F)c1ccc2c(n1)N(C(=O)Nc1cc(OCCO)ccn1)[C@H]1CCN2C1 (single isomer, unassigned) [Example 262]	–
> 150	A (EC1.5<1 μM)	N#Cc1ccc(NC(=O)N2c3nc(C(=O)NCC(F)(F)F)ccc3N3CC[C@H]2C3)nc1 [Example 158, (4S)—N5-(5-cyanopyridin-2-yl)-N7-(2,2,2-trifluoroethyl)-3,4-dihydro-1,4-methanopyrido[2,3-b][1,4]diazepine-5,7(2H)-dicarboxamide]	–
> 150	A (EC1.5<1 μM)	O=C(NCc1cccc(F)c1)c1ccc2c(n1)N(C(=O)Nc1ccccn1)[C@H]1CCN2C1 [Example 236, (4S)—N7-(3-fluorobenzyl)-N5-(pyridin-2-yl)-3,4-dihydro-1,4-methanopyrido[2,3-b][1,4]diazepine-5,7(2H)-dicarboxamide]	–
> 150	B (EC1.5 1-25 μM)	O=C(NCc1nnn[nH]1)c1ccc2c(n1)N(C(=O)Nc1cc(OC[C@H](O)CO)ccn1)[C@H]1CCN2C1 [Example 256, (4S)—N7-((1H-tetrazol-5-yl)methyl)-N5-(4-((R)-2,3-dihydroxypropoxy)pyridin-2-yl)-3,4-dihydro-1,4-methanopyrido[2,3-b][1,4]diazepine-5,7(2H)-dicarboxamide]	–
< 150	A (EC1.5<1 μM)	Cc1cc(C(=O)N[C@H](C)C(F)(F)F)nc2c1N1CC[C@@H](C1)N2C(=O)Nc1cc(OC[C@H](O)CO)ccn1 [Example 292, (4S)—N5-(4-((R)-2,3-dihydroxypropoxy)pyridin-2-yl)-9-methyl-N7-((R)-1,1,1-trifluoropropan-2-yl)-3,4-dihydro-1,4-methanopyrido[2,3-b][1,4]diazepine-5,7(2H)-dicarboxamide]	–
> 150	A (EC1.5<1 μM)	C[C@@H](NC(=O)c1nc2c(cc1F)N1CC[C@@H](C1)N2C(=O)Nc1cc(OC[C@H](O)CO)ccn1)C(F)(F)F [Example 283, (4S)—N5-(4-((R)-2,3-dihydroxypropoxy)pyridin-2-yl)-8-fluoro-N7-((R)-1,1,1-trifluoropropan-2-yl)-3,4-dihydro-1,4-methanopyrido[2,3-b][1,4]diazepine-5,7(2H)-dicarboxamide]	–
> 150	A (EC1.5<1 μM)	O=C(NCc1ccccc1)c1ccc2c(n1)N(C(=O)Nc1cc(OC[C@H](O)CO)ccn1)[C@H]1CCN2C1 [Example 171, (4S)—N7-benzyl-N5-(4-((R)-2,3-dihydroxypropoxy)pyridin-2-yl)-3,4-dihydro-1,4-methanopyrido[2,3-b][1,4]diazepine-5,7(2H)-dicarboxamide]	–
< 150	A (EC1.5<1 μM)	CC(=O)Nc1ccnc(NC(=O)N2c3nc(C(=O)N[C@H](C)C(F)(F)F)ccc3N3CC[C@H]2C3)c1 [Example 320, (4S)—N5-(4-acetamidopyridin-2-yl)-N7-((R)-1,1,1-trifluoropropan-2-yl)-3,4-dihydro-1,4-methanopyrido[2,3-b][1,4]diazepine-5,7(2H)-dicarboxamide]	–

From patent publication US10072011B2, “Substituted bridged urea analogs as sirtuin modulators” (GlaxoSmithKline Intellectual Property (No.2) Limited, priority 2014, dated 2018)
